# Data: patent publication US20030181527A1, “Novel formulations of alpha-2,4-disulfophenyl-n-tert-butylnitrone” (priority 2000, published 2003)
# Assays:
# [1] = Stability of 100 mg/ml aqueous solution with added factors (chelating agent, antioxidant, oxygen removal, pH); format: physicochemical
# Procedure: The effects of several added factors were investigated in experiments designed using a multivariate technique. An aqueous solution of α-(2,4-disulfophenyl)-N-tert-butylnitrone disodium salt (100 mg/ml) containing less than 0.3% 2,4-disulphobenzaldehyde disodium salt (II) was placed in sealed 10 ml glass vials with a fill volume of 10 ml. The concentrations of the degradation products and particularly of 2,4-disulphobenzaldehyde disodium salt (II) were measured by a chromatographic method after accelerated storage conditions at +40° C. and 75% relative humidity for two months.
# Values are mean±standard deviation. n indicates the number of independent experiments. A t-test was performed to evaluate the significance of the different factors.
# [2] = Effect of concentration on stability, carbonate-buffered solutions, 40 days +40° C.; format: physicochemical; details: 50 mM sodium hydrogen carbonate; for Final Amount of Aldehyde (II): 40 days +40° C./75% RH
# Procedure: In an experiment, aqueous solutions of three different concentrations of α-(2,4-disulfophenyl)-N-tert-butylnitrone disodium salt buffered with sodium hydrogen carbonate (50 mM) were dispensed into 20 ml glass vials, sealed, and then stored for 40 days at +40° C. and 75% relative humidity.
# [3] = Effect of concentration on stability, unbuffered solutions at +5° C.; format: physicochemical
# Procedure: In a second study unbuffered aqueous solutions of α-(2,4-disulfophenyl)-N-tert-butylnitrone disodium salt (concentration either 100 mg/ml or 200 mg/ml) were dispensed into 50 ml glass vials and stored at +5° C.
# [4] = Stability of buffered and unbuffered solutions and concentrates at room temperature; format: physicochemical
# Excerpt: In a further study the stability of both buffered (sodium hydrogen carbonate) and unbuffered aqueous solutions and concentrates of α-(2,4-disulfophenyl)-N-tert-butylnitrone disodium salt stored at room temperature were compared. […] The buffered solutions show no apparent concentration dependent decomposition due to the short storage time and moderate storage temperature.
# E. coli = test: Antimicrobial efficacy (European Pharmacopoeia 2000, Chapter 5.1.3); format: cell-based
# Procedure: (§1) The antimicrobial efficacy was tested for three different solutions: […] iii) a carbonate buffer control. The tests were performed according to European Pharmacopoeia 2000, Chapter 5.1.3, pages 259 to 260. Seven 10 ml vials were inoculated, one per test organism. During the tests, the vials were stored at controlled room temperature and protected from light. At different time intervals, samples were withdrawn and after appropriate dilutions the numbers of viable microorganisms (colony forming units per ml, CFU/ml) were determined using standard plate count procedures.
# E. gergoviae = test: as above; format: cell-based; details: for Number of CFUs per ml - Time after Inoculation: E. gergoviae
# Procedure: as §1
# S. aureus = test: as above; format: cell-based
# Procedure: as §1
# [5] = unbuffered 100 mg/ml, 12 months
# [6] = unbuffered 200 mg/ml, 12 months
# [7] = 7.5 mg/ml buffered (sodium hydrogen carbonate), 0 hours
# [8] = 7.5 mg/ml buffered (sodium hydrogen carbonate), 48 hours
# [9] = 75 mg/ml buffered (sodium hydrogen carbonate), 0 hours
# [10] = 75 mg/ml buffered (sodium hydrogen carbonate), 48 hours
# [11] = 150 mg/ml buffered (sodium hydrogen carbonate), 0 hours
# [12] = 150 mg/ml buffered (sodium hydrogen carbonate), 48 hours
structure (smiles),measurement,setting,value
"CC(C)(C)[N+]([O-])=Cc1ccc(S(=O)(=O)[O-])cc1S(=O)(=O)[O-].[Na+].[Na+] [α-(2,4-disulfophenyl)-N-tert-butylnitrone disodium salt]","Initial content of 2,4-disulphobenzaldehyde disodium salt (II)","[1]; 100 mg/ml aqueous solution, before storage",less than 0.3%
same,Final Amount of Aldehyde (II),"[1]; 100 mg/ml, added EDTA, pH 7.0 to 8.8, 2 months +40° C./75% RH",2.27 ± 0.12 area %
same,Final Amount of Aldehyde (II),"[1]; 100 mg/ml, added ascorbate, pH 7.0 to 7.3, 2 months +40° C./75% RH",1.32 ± 0.11 (p < 0.001) area %
same,Final Amount of Aldehyde (II),"[1]; 100 mg/ml, added factor none, pH 7.0 to 8.2, 2 months +40° C./75% RH",2.20 ± 0.11 area %
same,Final Amount of Aldehyde (II),"[1]; 100 mg/ml, nitrogen purge, pH 7.0 to 8.6, 2 months +40° C./75% RH",1.34 ± 0.18 (p < 0.001) area %
same,Effect of pH on the degree of decomposition,"[1]; pH 7 to 9, 100 mg/ml, 2 months +40° C./75% RH",no significant effect
same,Final Amount of Aldehyde (II),[2]; 200 mg/ml,3.5 Area %
same,Initial Amount of Aldehyde (II),[2]; 200 mg/ml,1.7 Area %
same,Final Amount of Aldehyde (II),[2]; 300 mg/ml,3.2 Area %
same,Initial Amount of Aldehyde (II),[2]; 300 mg/ml,1.7 Area %
same,Final Amount of Aldehyde (II),[2]; 400 mg/ml,2.9 Area %
same,Initial Amount of Aldehyde (II),[2]; 400 mg/ml,1.8 Area %
same,Amount of Aldehyde (II),"[3]; unbuffered 100 mg/ml, 0 months",0.2 Area %
same,pH,"[3]; unbuffered 100 mg/ml, 0 months",7.4
same,Amount of Aldehyde (II),"[3]; unbuffered 100 mg/ml, 1 month",0.5 Area %
same,pH,"[3]; unbuffered 100 mg/ml, 1 month",7.5
same,Amount of Aldehyde (II),"[3]; unbuffered 100 mg/ml, 3 months",1.0 Area %
same,pH,"[3]; unbuffered 100 mg/ml, 3 months",7.3
same,Amount of Aldehyde (II),"[3]; unbuffered 100 mg/ml, 6 months",1.6 Area %
same,pH,"[3]; unbuffered 100 mg/ml, 6 months",7.1
same,Amount of Aldehyde (II),[3]; [5],1.6 Area %
same,pH,[3]; [5],6.9
same,Amount of Aldehyde (II),"[3]; unbuffered 200 mg/ml, 0 months",0.2 Area %
same,pH,"[3]; unbuffered 200 mg/ml, 0 months",7.6
same,Amount of Aldehyde (II),"[3]; unbuffered 200 mg/ml, 1 month",0.4 Area %
same,pH,"[3]; unbuffered 200 mg/ml, 1 month",7.6
same,Amount of Aldehyde (II),"[3]; unbuffered 200 mg/ml, 3 months",0.6 Area %
same,pH,"[3]; unbuffered 200 mg/ml, 3 months",7.4
same,Amount of Aldehyde (II),"[3]; unbuffered 200 mg/ml, 6 months",0.8 Area %
same,pH,"[3]; unbuffered 200 mg/ml, 6 months",7.4
same,Amount of Aldehyde (II),[3]; [6],1.1 Area %
same,pH,[3]; [6],6.9
same,Amount of Aldehyde (II),[4]; [7],0.6 Area %
same,pH,[4]; [7],8.1
same,Amount of Aldehyde (II),[4]; [8],0.7 Area %
same,pH,[4]; [8],8.7
same,Amount of Aldehyde (II),"[4]; 7.5 mg/ml unbuffered, 0 hours",1.0 Area %
same,pH,"[4]; 7.5 mg/ml unbuffered, 0 hours",5.8
same,Amount of Aldehyde (II),"[4]; 7.5 mg/ml unbuffered, 48 hours",2.4 Area %
same,pH,"[4]; 7.5 mg/ml unbuffered, 48 hours",6.3
same,Amount of Aldehyde (II),[4]; [9],0.6 Area %
same,pH,[4]; [9],8.0
same,Amount of Aldehyde (II),[4]; [10],0.7 Area %
same,pH,[4]; [10],8.1
same,Amount of Aldehyde (II),"[4]; 75 mg/ml unbuffered, 0 hours",1.1 Area %
same,pH,"[4]; 75 mg/ml unbuffered, 0 hours",6.1
same,Amount of Aldehyde (II),"[4]; 75 mg/ml unbuffered, 48 hours",1.9 Area %
same,pH,"[4]; 75 mg/ml unbuffered, 48 hours",6.7
same,Amount of Aldehyde (II),[4]; [11],0.6 Area %
same,pH,[4]; [11],7.9
same,Amount of Aldehyde (II),[4]; [12],0.7 Area %
same,pH,[4]; [12],7.8
same,Amount of Aldehyde (II),"[4]; 150 mg/ml unbuffered, 0 hours",1.0 Area %
same,pH,"[4]; 150 mg/ml unbuffered, 0 hours",6.1
same,Amount of Aldehyde (II),"[4]; 150 mg/ml unbuffered, 48 hours",1.7 Area %
same,pH,"[4]; 150 mg/ml unbuffered, 48 hours",6.7
same,Number of CFUs per ml - Time after Inoculation,"E. coli; 10 mg/ml, 6 h",9.0 × 10^5 CFUs per ml
same,Number of CFUs per ml - Time after Inoculation,"E. coli; 10 mg/ml, 24 h",5.0 × 10^4 CFUs per ml
same,Number of CFUs per ml - Time after Inoculation,"E. coli; 10 mg/ml, 48 h",≦10 CFUs per ml
same,Number of CFUs per ml - Time after Inoculation,"E. coli; 10 mg/ml, 7 days",<1 CFUs per ml
same,Number of CFUs per ml - Time after Inoculation,"E. coli; 10 mg/ml, 14 days",<1 CFUs per ml
same,Number of CFUs per ml - Time after Inoculation,"E. coli; 10 mg/ml, 21 days",<1 CFUs per ml
same,Number of CFUs per ml - Time after Inoculation,"E. coli; 10 mg/ml, 28 days",<1 CFUs per ml
same,Number of CFUs per ml - Time after Inoculation,"E. coli; 10 mg/ml, <1 min",1.5 × 10^6 CFUs per ml
same,Number of CFUs per ml - Time after Inoculation,"E. coli; 400 mg/ml, 6 h",4.1 × 10^4 CFUs per ml
same,Number of CFUs per ml - Time after Inoculation,"E. coli; 400 mg/ml, 24 h",<1 CFUs per ml
same,Number of CFUs per ml - Time after Inoculation,"E. coli; 400 mg/ml, 48 h",<1 CFUs per ml
same,Number of CFUs per ml - Time after Inoculation,"E. coli; 400 mg/ml, 7 days",<1 CFUs per ml
same,Number of CFUs per ml - Time after Inoculation,"E. coli; 400 mg/ml, 14 days",<1 CFUs per ml
same,Number of CFUs per ml - Time after Inoculation,"E. coli; 400 mg/ml, 21 days",<1 CFUs per ml
same,Number of CFUs per ml - Time after Inoculation,"E. coli; 400 mg/ml, 28 days",<1 CFUs per ml
same,Number of CFUs per ml - Time after Inoculation,"E. coli; 400 mg/ml, <1 min",3.8 × 10^5 CFUs per ml
same,Number of CFUs per ml - Time after Inoculation,"E. gergoviae; 10 mg/ml, 6 h",2.0 × 10^5 CFUs per ml
same,Number of CFUs per ml - Time after Inoculation,"E. gergoviae; 10 mg/ml, 24 h",≦10 CFUs per ml
same,Number of CFUs per ml - Time after Inoculation,"E. gergoviae; 10 mg/ml, 48 h",<1 CFUs per ml
same,Number of CFUs per ml - Time after Inoculation,"E. gergoviae; 10 mg/ml, 7 days",<1 CFUs per ml
same,Number of CFUs per ml - Time after Inoculation,"E. gergoviae; 10 mg/ml, 14 days",<1 CFUs per ml
same,Number of CFUs per ml - Time after Inoculation,"E. gergoviae; 10 mg/ml, 21 days",<1 CFUs per ml
same,Number of CFUs per ml - Time after Inoculation,"E. gergoviae; 10 mg/ml, 28 days",<1 CFUs per ml
same,Number of CFUs per ml - Time after Inoculation,"E. gergoviae; 10 mg/ml, <1 min",8.0 × 10^5 CFUs per ml
same,Reduction in colony forming units per ml (CFU/ml),"E. gergoviae; 400 mg/ml, E. gergovia, within 6 hours",≥ 10^3 fold
same,Number of CFUs per ml - Time after Inoculation,"E. gergoviae; 400 mg/ml, 6 h",1.3 × 10^2 CFUs per ml
same,Number of CFUs per ml - Time after Inoculation,"E. gergoviae; 400 mg/ml, 24 h",<1 CFUs per ml
same,Number of CFUs per ml - Time after Inoculation,"E. gergoviae; 400 mg/ml, 48 h",<1 CFUs per ml
same,Number of CFUs per ml - Time after Inoculation,"E. gergoviae; 400 mg/ml, 7 days",<1 CFUs per ml
same,Number of CFUs per ml - Time after Inoculation,"E. gergoviae; 400 mg/ml, 14 days",<1 CFUs per ml
same,Number of CFUs per ml - Time after Inoculation,"E. gergoviae; 400 mg/ml, 21 days",<1 CFUs per ml
same,Number of CFUs per ml - Time after Inoculation,"E. gergoviae; 400 mg/ml, 28 days",<1 CFUs per ml
same,Number of CFUs per ml - Time after Inoculation,"E. gergoviae; 400 mg/ml, <1 min",5.2 × 10^5 CFUs per ml
same,Number of CFUs per ml - Time after Inoculation,"S. aureus; 10 mg/ml, 6 h",4.5 × 10^5 CFUs per ml
same,Number of CFUs per ml - Time after Inoculation,"S. aureus; 10 mg/ml, 24 h",4.5 × 10^3 CFUs per ml
same,Number of CFUs per ml - Time after Inoculation,"S. aureus; 10 mg/ml, 48 h",≦10 CFUs per ml
same,Number of CFUs per ml - Time after Inoculation,"S. aureus; 10 mg/ml, 7 days",<1 CFUs per ml
same,Number of CFUs per ml - Time after Inoculation,"S. aureus; 10 mg/ml, 14 days",<1 CFUs per ml
same,Number of CFUs per ml - Time after Inoculation,"S. aureus; 10 mg/ml, 21 days",<1 CFUs per ml
same,Number of CFUs per ml - Time after Inoculation,"S. aureus; 10 mg/ml, 28 days",<1 CFUs per ml
same,Number of CFUs per ml - Time after Inoculation,"S. aureus; 10 mg/ml, <1 min",2.0 × 10^6 CFUs per ml
same,Number of CFUs per ml - Time after Inoculation,"S. aureus; 400 mg/ml, 6 h",6.7 × 10^5 CFUs per ml
same,Number of CFUs per ml - Time after Inoculation,"S. aureus; 400 mg/ml, 24 h",8.7 × 10^2 CFUs per ml
same,Number of CFUs per ml - Time after Inoculation,"S. aureus; 400 mg/ml, 48 h",3.8 × 10^2 CFUs per ml
same,Number of CFUs per ml - Time after Inoculation,"S. aureus; 400 mg/ml, 7 days",<1 CFUs per ml
same,Number of CFUs per ml - Time after Inoculation,"S. aureus; 400 mg/ml, 14 days",<1 CFUs per ml
same,Number of CFUs per ml - Time after Inoculation,"S. aureus; 400 mg/ml, 21 days",<1 CFUs per ml
same,Number of CFUs per ml - Time after Inoculation,"S. aureus; 400 mg/ml, 28 days",<1 CFUs per ml
same,Number of CFUs per ml - Time after Inoculation,"S. aureus; 400 mg/ml, <1 min",3.3 × 10^6 CFUs per ml
